Measured values published in ChEMBL document CHEMBL5715260, “Selectivity Literature for EUbOPEN Chemogenomic Library” (2024).

What was measured:
[1] = molecular target: T1, Hepatocyte nuclear factor 4-alpha (Homo sapiens) (UniProt P41235); assay: Selectivity interaction (Reporter gene assay) EUB0001163a HNF4A; parameters: recommended concentration 10 uM
T1 sequence (whole entry): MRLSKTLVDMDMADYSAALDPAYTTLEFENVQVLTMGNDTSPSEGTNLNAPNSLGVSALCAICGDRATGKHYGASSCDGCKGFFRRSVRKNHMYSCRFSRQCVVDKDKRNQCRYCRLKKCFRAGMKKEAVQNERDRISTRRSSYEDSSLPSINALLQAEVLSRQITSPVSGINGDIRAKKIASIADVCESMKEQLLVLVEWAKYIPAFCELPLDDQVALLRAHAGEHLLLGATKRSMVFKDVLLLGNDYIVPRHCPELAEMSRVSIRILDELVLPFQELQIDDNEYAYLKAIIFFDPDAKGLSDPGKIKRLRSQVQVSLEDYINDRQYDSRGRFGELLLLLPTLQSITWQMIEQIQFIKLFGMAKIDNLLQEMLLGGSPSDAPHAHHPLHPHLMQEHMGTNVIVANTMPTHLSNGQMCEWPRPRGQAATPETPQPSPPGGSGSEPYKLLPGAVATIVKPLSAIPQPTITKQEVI

[2] = molecular target: T2, Nuclear receptor subfamily 2 group C member 1 (Homo sapiens) (UniProt P13056); assay: Selectivity interaction (Reporter gene assay) EUB0001163a NR2C1; parameters: recommended concentration 10 uM
T2 sequence (whole entry): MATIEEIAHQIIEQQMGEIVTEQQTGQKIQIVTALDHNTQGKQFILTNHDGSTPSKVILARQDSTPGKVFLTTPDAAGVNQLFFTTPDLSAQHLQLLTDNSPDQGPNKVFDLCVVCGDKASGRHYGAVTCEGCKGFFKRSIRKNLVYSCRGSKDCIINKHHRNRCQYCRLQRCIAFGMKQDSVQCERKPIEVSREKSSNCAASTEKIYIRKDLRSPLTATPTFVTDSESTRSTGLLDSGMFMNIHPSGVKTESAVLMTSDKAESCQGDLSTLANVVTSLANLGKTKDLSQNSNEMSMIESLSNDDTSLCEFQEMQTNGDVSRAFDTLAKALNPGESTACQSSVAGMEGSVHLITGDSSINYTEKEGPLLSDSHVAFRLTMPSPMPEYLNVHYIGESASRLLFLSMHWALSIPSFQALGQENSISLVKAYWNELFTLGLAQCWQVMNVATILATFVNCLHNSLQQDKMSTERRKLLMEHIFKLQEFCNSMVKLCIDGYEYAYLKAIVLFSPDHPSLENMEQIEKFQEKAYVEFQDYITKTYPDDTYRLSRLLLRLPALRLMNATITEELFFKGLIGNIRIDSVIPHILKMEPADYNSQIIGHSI

[3] = molecular target: Nuclear receptor subfamily 2 group E member 1 (Homo sapiens) (UniProt Q9Y466); assay: Selectivity interaction (Reporter gene assay) EUB0001163a NR2E1; parameters: recommended concentration 10 uM
[4] = molecular target: Nuclear receptor subfamily 4immunitygroup A member 1 (Homo sapiens) (UniProt P22736); assay: Selectivity interaction (Reporter gene assay) EUB0001163a NR4A1; parameters: recommended concentration 10 uM
[5] = molecular target: Steroidogenic factor 1 (Homo sapiens) (UniProt Q13285); assay: Selectivity interaction (Reporter gene assay) EUB0001163a NR5A1; parameters: recommended concentration 10 uM
[6] = molecular target: T3, Alpha trans-inducing protein (Human alphaherpesvirus 1) (UniProt A0A5J6DW59); assay: Selectivity interaction (Reporter gene assay) EUB0001163a UL48; parameters: recommended concentration 10 uM
[7] = molecular target: T4, Retinoic acid receptor RXR-alpha (Homo sapiens) (UniProt P19793); assay: Selectivity interaction (Reporter gene assay) EUB0001163a RXRA; parameters: recommended concentration 10 uM; conditions: reference bexarotene 1 uM, Selectivity number of off-targets 0.0, Selectivity number of targets 1.0, Source Knowledge inhouse
T4 sequence (whole entry): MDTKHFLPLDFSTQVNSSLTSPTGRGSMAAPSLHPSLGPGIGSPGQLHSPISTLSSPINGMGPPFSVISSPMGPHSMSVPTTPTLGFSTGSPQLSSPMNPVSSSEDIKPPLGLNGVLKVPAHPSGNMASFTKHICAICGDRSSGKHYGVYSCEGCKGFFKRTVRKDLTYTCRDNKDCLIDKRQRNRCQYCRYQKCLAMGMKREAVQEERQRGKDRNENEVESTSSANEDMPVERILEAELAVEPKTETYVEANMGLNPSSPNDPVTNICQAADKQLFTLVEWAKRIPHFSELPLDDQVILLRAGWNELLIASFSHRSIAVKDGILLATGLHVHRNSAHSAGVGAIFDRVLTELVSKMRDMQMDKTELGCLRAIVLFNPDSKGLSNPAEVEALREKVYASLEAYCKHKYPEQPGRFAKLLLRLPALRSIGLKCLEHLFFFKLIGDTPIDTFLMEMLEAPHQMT

[8] = molecular target: T1, Hepatocyte nuclear factor 4-alpha (Homo sapiens); assay: Selectivity interaction (Reporter gene assay) EUB0001158a HNF4A; parameters: recommended concentration 1 uM
[9] = molecular target: T2, Nuclear receptor subfamily 2 group C member 1 (Homo sapiens); assay: Selectivity interaction (Reporter gene assay) EUB0001158a NR2C1; parameters: recommended concentration 1 uM
[10] = molecular target: Nuclear receptor subfamily 2 group E member 1 (Homo sapiens) (UniProt Q9Y466); assay: Selectivity interaction (Reporter gene assay) EUB0001158a NR2E1; parameters: recommended concentration 1 uM
[11] = molecular target: Nuclear receptor subfamily 4immunitygroup A member 1 (Homo sapiens) (UniProt P22736); assay: Selectivity interaction (Reporter gene assay) EUB0001158a NR4A1; parameters: recommended concentration 1 uM
[12] = molecular target: Steroidogenic factor 1 (Homo sapiens) (UniProt Q13285); assay: Selectivity interaction (Reporter gene assay) EUB0001158a NR5A1; parameters: recommended concentration 1 uM
[13] = molecular target: T3, Alpha trans-inducing protein (Human alphaherpesvirus 1); assay: Selectivity interaction (Reporter gene assay) EUB0001158a UL48; parameters: recommended concentration 1 uM
[14] = molecular target: T4, Retinoic acid receptor RXR-alpha (Homo sapiens); assay: Selectivity interaction (Reporter gene assay) EUB0001158a RXRA; parameters: recommended concentration 1 uM; conditions: reference bexarotene 1 uM, Selectivity number of off-targets 0.0, Selectivity number of targets 1.0, Source Knowledge inhouse
[15] = molecular target: T1, Hepatocyte nuclear factor 4-alpha (Homo sapiens); assay: Selectivity interaction (Reporter gene assay) EUB0001157a HNF4A; parameters: recommended concentration 10 uM
[16] = molecular target: T2, Nuclear receptor subfamily 2 group C member 1 (Homo sapiens); assay: Selectivity interaction (Reporter gene assay) EUB0001157a NR2C1; parameters: recommended concentration 10 uM
[17] = molecular target: Nuclear receptor subfamily 2 group E member 1 (Homo sapiens) (UniProt Q9Y466); assay: Selectivity interaction (Reporter gene assay) EUB0001157a NR2E1; parameters: recommended concentration 10 uM
[18] = molecular target: Nuclear receptor subfamily 4immunitygroup A member 1 (Homo sapiens) (UniProt P22736); assay: Selectivity interaction (Reporter gene assay) EUB0001157a NR4A1; parameters: recommended concentration 10 uM
[19] = molecular target: Steroidogenic factor 1 (Homo sapiens) (UniProt Q13285); assay: Selectivity interaction (Reporter gene assay) EUB0001157a NR5A1; parameters: recommended concentration 10 uM
[20] = molecular target: T3, Alpha trans-inducing protein (Human alphaherpesvirus 1); assay: Selectivity interaction (Reporter gene assay) EUB0001157a UL48; parameters: recommended concentration 10 uM
[21] = molecular target: T4, Retinoic acid receptor RXR-alpha (Homo sapiens); assay: Selectivity interaction (Reporter gene assay) EUB0001157a RXRA; parameters: recommended concentration 10 uM; conditions: reference bexarotene 1 uM, Selectivity number of off-targets 0.0, Selectivity number of targets 1.0, Source Knowledge inhouse
[22] = molecular target: T1, Hepatocyte nuclear factor 4-alpha (Homo sapiens); assay: Selectivity interaction (Reporter gene assay) EUB0001160a HNF4A; parameters: recommended concentration 1 uM
[23] = molecular target: T2, Nuclear receptor subfamily 2 group C member 1 (Homo sapiens); assay: Selectivity interaction (Reporter gene assay) EUB0001160a NR2C1; parameters: recommended concentration 1 uM
[24] = molecular target: Nuclear receptor subfamily 2 group E member 1 (Homo sapiens) (UniProt Q9Y466); assay: Selectivity interaction (Reporter gene assay) EUB0001160a NR2E1; parameters: recommended concentration 1 uM
[25] = molecular target: Nuclear receptor subfamily 4immunitygroup A member 1 (Homo sapiens) (UniProt P22736); assay: Selectivity interaction (Reporter gene assay) EUB0001160a NR4A1; parameters: recommended concentration 1 uM
[26] = molecular target: Steroidogenic factor 1 (Homo sapiens) (UniProt Q13285); assay: Selectivity interaction (Reporter gene assay) EUB0001160a NR5A1; parameters: recommended concentration 1 uM
[27] = molecular target: T3, Alpha trans-inducing protein (Human alphaherpesvirus 1); assay: Selectivity interaction (Reporter gene assay) EUB0001160a UL48; parameters: recommended concentration 1 uM
[28] = molecular target: T4, Retinoic acid receptor RXR-alpha (Homo sapiens); assay: Selectivity interaction (Reporter gene assay) EUB0001160a RXRA; parameters: recommended concentration 1 uM
[29] = molecular target: T1, Hepatocyte nuclear factor 4-alpha (Homo sapiens); assay: Selectivity interaction (Reporter gene assay) EUB0001167a HNF4A; parameters: recommended concentration 1 uM
[30] = molecular target: T2, Nuclear receptor subfamily 2 group C member 1 (Homo sapiens); assay: Selectivity interaction (Reporter gene assay) EUB0001167a NR2C1; parameters: recommended concentration 1 uM
[31] = molecular target: Nuclear receptor subfamily 2 group E member 1 (Homo sapiens) (UniProt Q9Y466); assay: Selectivity interaction (Reporter gene assay) EUB0001167a NR2E1; parameters: recommended concentration 1 uM
[32] = molecular target: Nuclear receptor subfamily 4immunitygroup A member 1 (Homo sapiens) (UniProt P22736); assay: Selectivity interaction (Reporter gene assay) EUB0001167a NR4A1; parameters: recommended concentration 1 uM
[33] = molecular target: Steroidogenic factor 1 (Homo sapiens) (UniProt Q13285); assay: Selectivity interaction (Reporter gene assay) EUB0001167a NR5A1; parameters: recommended concentration 1 uM
[34] = molecular target: T3, Alpha trans-inducing protein (Human alphaherpesvirus 1); assay: Selectivity interaction (Reporter gene assay) EUB0001167a UL48; parameters: recommended concentration 1 uM
[35] = molecular target: T4, Retinoic acid receptor RXR-alpha (Homo sapiens); assay: Selectivity interaction (Reporter gene assay) EUB0001167a RXRA; parameters: recommended concentration 1 uM; conditions: reference bexarotene 1 uM, Selectivity number of off-targets 0.0, Selectivity number of targets 1.0, Source Knowledge inhouse

Chain of Nuclear receptor subfamily 2 group E member 1 (Homo sapiens) (Q9Y466 whole entry): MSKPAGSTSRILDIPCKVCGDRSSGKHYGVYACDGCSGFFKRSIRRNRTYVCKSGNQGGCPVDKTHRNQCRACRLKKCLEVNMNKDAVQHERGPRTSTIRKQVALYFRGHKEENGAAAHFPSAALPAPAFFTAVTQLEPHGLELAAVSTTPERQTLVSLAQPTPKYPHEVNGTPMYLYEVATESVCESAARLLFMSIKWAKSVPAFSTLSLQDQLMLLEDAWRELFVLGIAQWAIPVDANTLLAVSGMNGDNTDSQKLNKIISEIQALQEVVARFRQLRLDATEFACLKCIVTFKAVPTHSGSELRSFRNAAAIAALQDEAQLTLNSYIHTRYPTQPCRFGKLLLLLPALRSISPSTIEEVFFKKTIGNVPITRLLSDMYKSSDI
Chain of Nuclear receptor subfamily 4immunitygroup A member 1 (Homo sapiens) (P22736 whole entry): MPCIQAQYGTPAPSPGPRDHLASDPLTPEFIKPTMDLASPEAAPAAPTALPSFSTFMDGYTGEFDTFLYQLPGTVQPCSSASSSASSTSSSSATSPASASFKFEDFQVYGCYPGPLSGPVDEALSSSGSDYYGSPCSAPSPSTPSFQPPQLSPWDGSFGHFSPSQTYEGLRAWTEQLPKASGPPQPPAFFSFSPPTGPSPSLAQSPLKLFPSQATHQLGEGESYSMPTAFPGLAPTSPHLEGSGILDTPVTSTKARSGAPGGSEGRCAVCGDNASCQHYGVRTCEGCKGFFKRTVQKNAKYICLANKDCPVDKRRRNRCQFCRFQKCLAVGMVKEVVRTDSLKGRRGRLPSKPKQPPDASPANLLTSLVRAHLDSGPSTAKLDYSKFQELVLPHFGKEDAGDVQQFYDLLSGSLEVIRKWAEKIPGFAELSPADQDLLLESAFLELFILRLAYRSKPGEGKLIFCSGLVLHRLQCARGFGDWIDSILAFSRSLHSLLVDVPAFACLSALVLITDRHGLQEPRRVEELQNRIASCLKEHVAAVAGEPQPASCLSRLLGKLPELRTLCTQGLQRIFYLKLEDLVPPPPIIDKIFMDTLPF
Chain of Steroidogenic factor 1 (Homo sapiens) (Q13285 whole entry): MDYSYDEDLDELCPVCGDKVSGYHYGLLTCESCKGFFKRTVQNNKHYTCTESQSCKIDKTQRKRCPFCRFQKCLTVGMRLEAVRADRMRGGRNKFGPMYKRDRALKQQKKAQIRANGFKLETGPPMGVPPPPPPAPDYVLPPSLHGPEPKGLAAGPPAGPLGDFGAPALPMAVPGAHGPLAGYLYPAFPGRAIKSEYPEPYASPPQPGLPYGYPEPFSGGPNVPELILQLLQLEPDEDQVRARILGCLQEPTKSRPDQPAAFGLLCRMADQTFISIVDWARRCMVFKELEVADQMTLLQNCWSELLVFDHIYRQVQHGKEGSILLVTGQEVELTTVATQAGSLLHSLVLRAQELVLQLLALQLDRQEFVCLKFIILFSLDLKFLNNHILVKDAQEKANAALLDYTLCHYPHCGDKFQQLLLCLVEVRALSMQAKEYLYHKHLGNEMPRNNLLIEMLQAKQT
T3 sequence (A0A5J6DW59 as listed by the source): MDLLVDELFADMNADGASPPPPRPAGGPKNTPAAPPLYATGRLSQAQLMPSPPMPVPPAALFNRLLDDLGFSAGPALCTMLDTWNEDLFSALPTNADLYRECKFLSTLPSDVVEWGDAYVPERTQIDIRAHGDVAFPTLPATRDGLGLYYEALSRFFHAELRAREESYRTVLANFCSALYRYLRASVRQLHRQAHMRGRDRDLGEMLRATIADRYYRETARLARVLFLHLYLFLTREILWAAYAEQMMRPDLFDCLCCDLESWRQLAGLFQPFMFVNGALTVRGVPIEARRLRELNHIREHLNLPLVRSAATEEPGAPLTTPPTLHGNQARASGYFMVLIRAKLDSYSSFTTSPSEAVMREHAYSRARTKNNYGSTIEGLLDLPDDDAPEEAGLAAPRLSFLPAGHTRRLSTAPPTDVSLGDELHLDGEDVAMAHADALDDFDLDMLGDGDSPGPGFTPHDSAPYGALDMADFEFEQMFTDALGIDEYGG

**Q.** Which results are given for `CCOC(=O)Nc1ccc2c(c1)N(C(=O)CN(CC)CC)c1ccccc1CC2`?
**A.** Fold activation [1]: 1.08; Fold activation [2]: 1.37; Remaining activity [3]: 1.38; Remaining activity [4]: 1.21; Fold activation [5]: 1.16; P-value [6]: 0.011; Relative activation [7]: 0.623%

**Q.** What does the source list for `CC(=O)Nc1nc(C)c(S(=O)(=O)Nc2ccc(C(O)(C(F)(F)F)C(F)(F)F)cc2)s1`?
**A.** Remaining activity [8]: 0.71; Remaining activity [9]: 0.684; Remaining activity [10]: 0.58; Remaining activity [11]: 0.661; Remaining activity [12]: 0.814; P-value [13]: 3.31e-05; Relative activation [14]: 0.191%

**Q.** For `O=S(=O)(Nc1ccc(C(O)(C(F)(F)F)C(F)(F)F)cc1)c1cccs1`, which Remaining activity [15] is on record?
**A.** Its Remaining activity is 0.822.

**Q.** What about the Remaining activity [16] of the same molecule?
**A.** The Remaining activity was 0.846.

**Q.** What about the Remaining activity [17] of the same molecule?
**A.** Its Remaining activity is 0.634.

**Q.** And the Remaining activity [18]?
**A.** Its Remaining activity is 0.943.

**Q.** And the Remaining activity [19]?
**A.** Its Remaining activity is 0.818.

**Q.** What about the P-value [20] of the same molecule?
**A.** Its P-value is 0.00195.

**Q.** What about the Relative activation [21] of the same molecule?
**A.** The Relative activation was 0.211%.

**Q.** How did the Remaining activity [22] turn out when `OC(c1ccc(-c2ccc(CN3CCN(Cc4ccncc4)CC3)cc2)c(F)c1)(C(F)(F)F)C(F)(F)F` was run?
**A.** The Remaining activity was 0.878.

**Q.** And the Fold activation [23]?
**A.** Its Fold activation is 1.26.

**Q.** And the Fold activation [24]?
**A.** Its Fold activation is 1.21.

**Q.** And the Remaining activity [25]?
**A.** Its Remaining activity is 0.922.

**Q.** What about the Remaining activity [26] of the same molecule?
**A.** The Remaining activity was 0.561.

**Q.** And the P-value [27]?
**A.** Its P-value is 0.00194.

**Q.** What about the Relative activation [28] of the same molecule?
**A.** Its Relative activation is 1.19%.

**Q.** How did the Remaining activity [29] turn out when `CC(=O)Oc1ccc2c(c1)[C@@]1(C)CCC[C@](C)(C(=O)OC(=O)[C@@]3(C)CCC[C@]4(C)c5cc(OC(C)=O)ccc5CC[C@@H]34)[C@@H]1CC2` was run?
**A.** Its Remaining activity is 0.928.

**Q.** And the Fold activation [30]?
**A.** The Fold activation was 1.13.

**Q.** What about the Fold activation [31] of the same molecule?
**A.** Its Fold activation is 1.06.

**Q.** And the Fold activation [32]?
**A.** Its Fold activation is 1.11.

**Q.** And the Remaining activity [33]?
**A.** The Remaining activity was 0.86.

**Q.** What about the P-value [34] of the same molecule?
**A.** Its P-value is 0.00117.

**Q.** What about the Relative activation [35] of the same molecule?
**A.** Its Relative activation is 0.795%.
